assay: Human HepG2 cell viability assay in 384 well format; assay type: toxicity, cell-based; set-up: dose 125 nL, time 70.5 hour; cytotoxicity at 70.5 h: concentration not given beside the values; conditions: HepG2 cells, read-out: Inhibition

Structure (SMILES)	cytotoxicity at 70.5 h [%]
Cc1cnn(CC2CCCN2C(=O)c2ccc(F)cc2Cl)c1 (stereo not drawn)	0.634
Cc1cnn(CC2CN(CC(=O)N(C)Cc3ccsc3)CCO2)c1 (stereo not drawn)	5.76
CC(C)CCCNC(=O)Nc1ccc(C(N)=O)c(Cl)c1	-4.82
CC(C)CCCNC(=O)Nc1ccc(Cl)c(C(N)=O)c1	1.37
CS(=O)(=O)N1CCC(NC(=O)COc2cccc(Cl)c2)CC1	1.43
CCOCCCNC(=O)Nc1ccc(F)c(C(N)=O)c1	6.9
O=C(CCOc1ccccc1Cl)N1CCN(c2cnccn2)CC1	0.75
COC(=O)c1cccn1C1CCN(Cc2cccnc2)CC1	4.46
CCc1nc(CN2CCOC(Cn3nc(C)cc3C)C2)no1 (stereo not drawn)	38.2
Cc1ccc(C)c(S(=O)(=O)CCNC2CCc3ncnn3C2)c1 (stereo not drawn)	-0.666
Cc1cnn(CC2CCCN2C(=O)c2ccc(Cl)cc2F)c1 (stereo not drawn)	-1.79
COc1ccccc1OCC(=O)NS(=O)(=O)c1ccc(Cl)s1	-2.89
COc1ncccc1C(=O)N1CCCC1c1c(C)nn(C)c1Cl (stereo not drawn)	-0.671
Cc1cn2nc(N3CCCCC3Cn3cccn3)sc2n1 (stereo not drawn)	22.5
Cc1cc(C(=O)N2CCCC(n3cncn3)C2)on1 (stereo not drawn)	26.7
c1cncc(CNC2CCc3ncnn3C2)c1 (stereo not drawn)	34.5
c1cnn(CC2CN(CC3CCCCC3)CCO2)c1 (stereo not drawn)	-0.377
CC(=O)N(Cc1noc(C)n1)C1CCN(Cc2ccc(C#N)cc2)C1 (stereo not drawn)	30.3
Cc1ccc(CNCC2CCCN2c2cccnn2)s1 (stereo not drawn)	4.46
c1cnnc(N2CCCC2CNCc2cccs2)c1 (stereo not drawn)	-1.72
CCc1nc2n(n1)CC(NCc1cnn(Cc3ccccc3)c1)CC2 (stereo not drawn)	-5.29
CC(NCc1nnc2n1CCCC2)C(=O)N1CCc2sccc2C1 (stereo not drawn)	-2.4
CC(NC(=O)NCc1ccccc1Cl)c1ccccn1 (stereo not drawn)	19.4
CC(NC(=O)Cn1ccc(=O)n(C)c1=O)c1ccccc1F (stereo not drawn)	-5.75

Structure (SMILES)	cytotoxicity at 70.5 h [%]
O=C(NCc1ccccn1)NCc1ccc(Cl)s1	20.5
COc1c(CNCc2ccc(CS(C)(=O)=O)cc2)c(C)nn1C	26.4
COc1c(CNCc2ccc(C(=O)N(C)C(C)C)cc2)c(C)nn1C	34.2
O=C(CCN1CCOC(Cn2cccn2)C1)NC1CCCCC1 (stereo not drawn)	-0.965
Cc1cn2nc(N3CCCC3Cn3cccn3)sc2n1 (stereo not drawn)	-4.17
Cc1nccn1C1CCCN(C(=O)Cc2cn3ccccc3n2)C1 (stereo not drawn)	16.9
CC(C)c1cc(C(=O)N2CCCC(n3cncn3)C2)n[nH]1 (stereo not drawn)	6.33
Cc1nnc(CN2CCN(C(C)c3nc(C4CC4)no3)CC2)o1 (stereo not drawn)	-1.41
Cn1ccnc1CN1CCCC1Cn1cccn1 (stereo not drawn)	-1.33
CCn1ccnc1CN1CCCN(C(=O)Cc2csc(C)n2)CC1	-5.98
COc1cccc(CN2CCCCC2Cn2nc(C)nc2C)c1 (stereo not drawn)	-9.6
CN(C)c1ccc(C(=O)NCc2csc(Br)c2)cn1	-11
CCN(CC)CC1CCN(Cc2ccn(C)c(=O)c2)CC1	-4.81
O=C(CSCc1ccncc1)NCc1csc(Br)c1	-8.77
Cc1oc(C)c(C(=O)NCc2cccc(C(N)=O)c2)c1C	-4.54
Cc1ccc(-n2cc(C(=O)N3CCCC(n4cccn4)C3)nn2)cc1 (stereo not drawn)	-5.27
O=C(CN1CCc2c(ncn2C2CC2)C1)NC1CCOCC1	-10.3
Cc1nc(CN2CCN(C(C)c3nc(C4CC4)no3)CC2)no1 (stereo not drawn)	-4.1
CC(C)(CNC(=O)NCCc1ccn(-c2ccccc2)n1)C(N)=O	-6.77
O=C(CCCOc1cccc(F)c1)N1CCCC(n2cncn2)C1 (stereo not drawn)	1.02
CCn1ccnc1CN1CCCC1Cn1cc(C)cn1 (stereo not drawn)	4.18
O=C(CCCOc1cccc(F)c1)N1CCCC(n2cccn2)C1 (stereo not drawn)	-5.07
Cc1noc(C)c1CN1CCN(C(C)c2nc(C3CC3)no2)CC1 (stereo not drawn)	-3.54
CC(C)c1nnc(CN2CCN(C(C)c3nc(C4CC4)no3)CC2)o1 (stereo not drawn)	-3.84
